Measured values taken from patent US6586617B1, “Sulfonamide derivatives” (Sumitomo Chemical Takeda Agro Company, Limited, priority 1999, dated 2003).
Like-named read-outs stand apart in the source and are kept apart here.

Experiments:
[1] = tested on: apple Alternaria leaf blotch (Alternaria mali); assay: Test Example 5: apple Alternaria leaf blotch, single and combined fungicides (Table 2); format: in vivo; conditions: for Lesion area ratio (%) / Protection value: apple seedlings; for protection effect in combination compared with estimated protection effect (synergy): in combination with chlorothalonil, hexaconazole and azoxystrobin
[2] = tested on: rice blast (Pyricularia oryzae); format: in vivo; conditions: for Lesion area ratio (%) / Protection value: rice plants
[3] = tested on: cucumber gray mold (Botrytis cinerea); assay: Test Example 9: cucumber gray mold, single and combined fungicides (Table 6); conditions: for Lesion area ratio (%) / Protection value: young cucumber (Yotsuba)
Protocol: (§1) The protection value was calculated by means of the equation as follows. protection value=(1−(lesion area in the division treated with fungicide)/lesion area in the division not treated with fungicide))×100
(§2) An estimated protection value of a mixture of active ingredients was calculated according to the Colby's formula [R. S. Colby, Weeds 15, 20-22 (1967)] and compared with the experimental protection value.
[wherein, E is the estimated protection value (additive effect) which will be obtained when the active ingredients A and B are used in a mixture in concentrations a and b, respectively x is the protection value obtained when the active igredient A is used in a concentration a, and y is the protection value obtained when the active ingredient B is used in a concentration b. […] A protection value equal 0 means that the lesion area ratio of the plants in the test group is as large as that of the plants in the untreated control group. A protection value equals 100 means that the plants in the test group are free from the disease.
The test compound (denoted by the compound No. in Table 1 above), azoxystrobin, mepanipyrim and iprodione, individually or in combination, were dissolved in dimethylformamide (final concentration was 1 wt %). Xylene (final concentration was 0.02 wt %) and Tween 20 (Trade Name) (final concentration was 0.02 wt %) were added to the solution. The resulting mixture was diluted with water to give a test solution which contained a given concentration (ppm) of the active ingredient. A spreader adjuvant SINDAIN (Trade Name, Manufactured by Takeda Chemical Industries, Ltd, and comprises 20 wt % of polyoxyethylene nonylphenyl ether and 12 wt % of calcium ligninsulfonate) was added to this solution in the final concentration of 0.05 wt % to give a spray agent.
The spray agent was sprayed in an amount of 10 ml/pot on young cucumber (cultural variety: Yotsuba) cultivated for 3 to 4 weeks in a greenhouse. After drying up in a room, the treated cucumbers were inoculated with pathogenic fangi on the leaves by placing the mycelial disks which were cut out from a PSA medium grown with Botrytis cinerea and then kept in a greenhouse at 28° C. for 3 days. Then, the ratio of the lesion area on the plants treated with the test compound and that on the plants treated with another substances to that on untreated plants was investigated.

[4] = tested on: apple Alternaria leaf blotch (Alternaria mali); assay: Test Example 6: apple Alternaria leaf blotch, single and combined fungicides (Table 3); conditions: for Lesion area ratio (%) / Protection value: apple leaves; for protection effect in combination compared with estimated protection effect (synergy): in combination with mepanipyrim (No. 289) and iminoctadine (No. 97), respectively
Protocol: as §1, §2
[wherein, E is the estimated protection value (additive effect) which will be obtained when the active ingredients A and B are used in a mixture in concentrations a and b, respectively x is the protection value obtained when the active igredient A is used in a concentration a, and y is the protection value obtained when the active ingredient B is used in a concentration b.

[5] = tested on: rice Helminthosporium leaf spot (Cochliobolus miyabeanus); assay: Test Example 8: rice Helminthosporium leaf spot, single and combined fungicides (Table 5); format: in vivo; conditions: for Lesion area ratio (%) / Protection value: young rice plants

CO/C=C(/C(=O)OC)c1ccccc1Oc1cc(Oc2ccccc2C#N)ncn1 [Azoxystrobin, azoxystrobin, reference compound]
Lesion area ratio (%) ([1]; 6.3 ppm active ingredient): 25.8%
Protection value ([1]; 6.3 ppm active ingredient): 56
Lesion area ratio (%) ([1]; 25 ppm active ingredient): 25.0%
Protection value ([1]; 25 ppm active ingredient): 58
Lesion area ratio (%) ([2]; 0.1 ppm active ingredient): 11.0%
Protection value ([2]; 0.1 ppm active ingredient): 56
Lesion area ratio (%) ([2]; 0.5 ppm active ingredient): 5.0%
Protection value ([2]; 0.5 ppm active ingredient): 80
Lesion area ratio (%) ([3]; 10 ppm active ingredient): 3.9%
Protection value ([3]; 10 ppm active ingredient): 69.8

N#Cc1c(Cl)c(Cl)c(Cl)c(C#N)c1Cl [Chlorothalonil, chlorothalonil, reference compound]
Lesion area ratio (%) ([1]; 6.3 ppm active ingredient): 43.5%
Protection value ([1]; 6.3 ppm active ingredient): 27
Lesion area ratio (%) ([1]; 25 ppm active ingredient): 60.0%
Protection value ([1]; 25 ppm active ingredient): 0
Lesion area ratio (%) ([1]; 100 ppm active ingredient): 16.8%
Protection value ([1]; 100 ppm active ingredient): 72

Cc1ccc(S(=O)(=O)N(C)c2ccccc2[N+](=O)[O-])cc1 [Compound No. 38, N-Methyl-2′-nitro-p-toluenesulfonanilide]
melting point: 131.5 to 132.5 °C

Cc1ccc(S(=O)(=O)N(c2ccc(Cl)cc2C#N)C(C)C)cc1 [Compound No. 97, 4′-Chloro-2′-cyano-N-isopropyl-p-toluenesulfonanilide]
Lesion area ratio (%) ([4]; 0.4 ppm active ingredient): 25.0%
Protection value ([4]; 0.4 ppm active ingredient): 65
Lesion area ratio (%) ([4]; 1.6 ppm active ingredient): 19.2%
Protection value ([4]; 1.6 ppm active ingredient): 73
Lesion area ratio (%) ([4]; 6.3 ppm active ingredient): 8.0%
Protection value ([4]; 6.3 ppm active ingredient): 89
protection effect in combination compared with estimated protection effect (synergy) [4]: higher protection effect

CCN(c1ccc(SC)cc1[N+](=O)[O-])S(=O)(=O)c1ccc(C)cc1 [Compound No. 227, N-Ethyl-4′-methylthio-2′-nitro-p-toluenesulfonanilide]
melting point: 135 to 136 °C

CCN(c1ccc(Cl)cc1[N+](=O)[O-])S(=O)(=O)c1ccc(C)cc1 [Compound No. 289, 4′-Chloro-N-ethyl-2′-nitro-p-toluenesulfonanilide]
Lesion area ratio (%) ([1]; 0.4 ppm active ingredient): 36.9%
Protection value ([1]; 0.4 ppm active ingredient): 38
Lesion area ratio (%) ([1]; 1.6 ppm active ingredient): 20.8%
Protection value ([1]; 1.6 ppm active ingredient): 65
Lesion area ratio (%) ([1]; 6.3 ppm active ingredient): 3.8%
Protection value ([1]; 6.3 ppm active ingredient): 94
Lesion area ratio (%) ([1]; 25 ppm active ingredient): 4.3%
Protection value ([1]; 25 ppm active ingredient): 93
protection effect in combination compared with estimated protection effect (synergy) [1]: higher protection effect
Lesion area ratio (%) ([2]; 100 ppm active ingredient): 25.0%
Protection value ([2]; 100 ppm active ingredient): 0
Lesion area ratio (%) ([2]; 200 ppm active ingredient): 25.0%
Protection value ([2]; 200 ppm active ingredient): 0
protection effect in combination compared with estimated protection effect (synergy) ([2]; in combination with azoxystrobin): higher protection effect
Lesion area ratio (%) ([5]; 25 ppm active ingredient): 5.0%
Protection value ([5]; 25 ppm active ingredient): 71.4
Lesion area ratio (%) ([5]; 100 ppm active ingredient): 4.5%
Protection value ([5]; 100 ppm active ingredient): 74.3
protection effect in combination compared with estimated protective effect (synergy) ([5]; in combination with ferimzone): higher protection effect
Lesion area ratio (%) ([3]; 100 ppm active ingredient): 13.2%
Protection value ([3]; 100 ppm active ingredient): 0.0
protection effect in combination compared with estimated protection effect (synergy) ([3]; in combination with azoxystrobin, mepanipyrim and iprodione): higher protection effect
Lesion area ratio (%) ([4]; 0.4 ppm active ingredient): 18.3%
Protection value ([4]; 0.4 ppm active ingredient): 74
Lesion area ratio (%) ([4]; 1.6 ppm active ingredient): 13.7%
Protection value ([4]; 1.6 ppm active ingredient): 81
Lesion area ratio (%) ([4]; 6.3 ppm active ingredient): 9.3%
Protection value ([4]; 6.3 ppm active ingredient): 87
protection effect in combination compared with estimated protection effect (synergy) [4]: higher protection effect

Cc1ccc(S(=O)(=O)N(c2ccc([N+](=O)[O-])cc2C#N)C(C)C)cc1 [Compound No. 421]
Lesion area ratio (%) ([1]; 0.4 ppm active ingredient): 24.7%
Protection value ([1]; 0.4 ppm active ingredient): 58
Lesion area ratio (%) ([1]; 1.6 ppm active ingredient): 20.0%
Protection value ([1]; 1.6 ppm active ingredient): 66
Lesion area ratio (%) ([1]; 6.3 ppm active ingredient): 2.3%
Protection value ([1]; 6.3 ppm active ingredient): 96
Lesion area ratio (%) ([1]; 25 ppm active ingredient): 0.3%
Protection value ([1]; 25 ppm active ingredient): 99
protection effect in combination compared with estimated protection effect (synergy) [1]: higher protection effect

CON(c1ccc([N+](=O)[O-])cc1Cl)S(=O)(=O)c1cc(Cl)ccc1Cl [Compound No. 528, N-Methoxy-4′-nitro-2,2′,5-trichlorobenzenesulfonanilide]
melting point: 136 to 138 °C

C/C(=N/Nc1nc(C)cc(C)n1)c1ccccc1C [Ferimzone, ferimzone, reference compound]
Lesion area ratio (%) ([5]; 25 ppm active ingredient): 1.5%
Protection value ([5]; 25 ppm active ingredient): 91.4
Lesion area ratio (%) ([5]; 100 ppm active ingredient): 0.4%
Protection value ([5]; 100 ppm active ingredient): 98.0

CCCCC(O)(Cn1cncn1)c1ccc(Cl)cc1Cl (stereo not drawn) [Hexaconazole, hexaconazole, reference compound]
Lesion area ratio (%) ([1]; 0.4 ppm active ingredient): 70.0%
Protection value ([1]; 0.4 ppm active ingredient): 0
Lesion area ratio (%) ([1]; 1.6 ppm active ingredient): 66.7%
Protection value ([1]; 1.6 ppm active ingredient): 0
Lesion area ratio (%) ([1]; 6.3 ppm active ingredient): 21.7%
Protection value ([1]; 6.3 ppm active ingredient): 63

N=C(N)NCCCCCCCCNCCCCCCCCNC(=N)N [Iminoctadine, iminoctadine, reference compound]
Lesion area ratio (%) ([4]; 0.4 ppm active ingredient): 66.7%
Protection value ([4]; 0.4 ppm active ingredient): 6
Lesion area ratio (%) ([4]; 1.6 ppm active ingredient): 33.8%
Protection value ([4]; 1.6 ppm active ingredient): 52
Lesion area ratio (%) ([4]; 6.3 ppm active ingredient): 35.0%
Protection value ([4]; 6.3 ppm active ingredient): 51

CC(C)NC(=O)N1CC(=O)N(c2cc(Cl)cc(Cl)c2)C1=O [Iprodione, iprodione]
Lesion area ratio (%) ([3]; 10 ppm active ingredient): 3.7%
Protection value ([3]; 10 ppm active ingredient): 71.3

CC#Cc1cc(C)nc(Nc2ccccc2)n1 [Mepanipyrim, mepanipyrim, reference compound]
Lesion area ratio (%) ([3]; 10 ppm active ingredient): 6.0%
Protection value ([3]; 10 ppm active ingredient): 53.8
Lesion area ratio (%) ([4]; 0.4 ppm active ingredient): 68.3%
Protection value ([4]; 0.4 ppm active ingredient): 4
Lesion area ratio (%) ([4]; 1.6 ppm active ingredient): 73.3%
Protection value ([4]; 1.6 ppm active ingredient): 0
Lesion area ratio (%) ([4]; 6.3 ppm active ingredient): 19.3%
Protection value ([4]; 6.3 ppm active ingredient): 73
